Experimental data taken from patent US4304778A, “4-Aminoquinazoline derivatives having fungicidal, anti-insect and acaricidal properties” (Sankyo Company Limited, priority 1978, dated 1981).

Columns and labels:
Sphaerotheca fuliginea = experiment: Effect on powdery mildew in cucumbers; type: in vivo; conditions: cucumber powdery mildew; 500 ppm; 10 days
Protocol: (§1) In the following Examples, wettable powders prepared according to the procedures of Example 4 were used, each powder containing 50% by weight of the active compound of this invention.
Cucumber seedlings (variety Sagamihanshiro), planted two per 12 cm diameter pot, were used as host plants at the stage when the first leaf was fully grown and open. Each test group of three pots was treated with one of the active compounds shown in Table 5 by spraying an aqueous suspension containing 500 ppm of the active compound onto the plants at the rate of 20 ml per 3 pots. After air-drying the plants, the host plants were inoculated with the microorganism Sphaerotheca fuliginea by brushing already infected cucumber leaves with a small brush and letting the microorganism fall onto the host plants. The inoculated plants were kept in a greenhouse at 24°-26° C. for 10 days. At the end of this time, the percentage diseased area was measured.

cockroach larvae = conditions: 24 hours; 25° C.
[1] = tested on: final instar larvae of the diamondback moth (Plutella xylostella); experiment: Repellent and emergence-inhibition effect on the final instar larvae of diamondback moths; type: in vivo; design: key to Extent of ingestion: -: no ingestion; ±: very little ingestion; +: some ingestion; ++: considerable ingestion; conditions: 72 hours; for pest or weed control at 500 ppm: Plutella xylostella, read-out: Emergence-inhibition rate (%); for Extent of ingestion: radish leaves dipped in 500 ppm
Description: as §1
Leaves of the Japanese radish (Raphanus sativus) were dipped for 30 seconds into a liquid containing 500 ppm of one of the compounds shown in Table 9. After air-drying the leaves, each leaf was placed into a plastic icecream cup (diameter 8 cm) and 15 final instar larvae of the diamondback moth (Plutella xylostella) were placed into each cup. Each test was conducted in duplicate and the results were averaged.

[2] = tested on: third instar larvae of the tobacco cutworm; experiment: Repellent action against the third instar larvae of the tobacco cutworm; type: in vivo; design: key: -: no ingestion; ±: very little ingestion; +: some ingestion; ++: considerable ingestion; conditions: cabbage leaves dipped in 500 ppm, 72 hours
Description: as §1
Cabbage leaves were dipped for 30 seconds in an aqueous suspension containing 500 ppm of one of the active compounds shown in Table 6. After air-drying, each leaf was placed into a plastic receptacle having a diameter of 8 cm and the third instar larvae (10 per receptacle) of the tobacco cutworm were released onto the leaves. After 72 hours, the extent of ingestion of the leaves was measured, using two receptacles for each test compound. The results are shown in Table 6, using the following notation (which is also employed, with the same meaning, in following Table 9): […]

Phytophthora infestans = type: in vivo; conditions: tomato late blight; 500 ppm; after 5 days; average per leaf
[3] = tested on: Colletotrichum lagenarium; experiment: Effect on anthracnose in cucumbers; type: in vivo; conditions: cucumber anthracnose; 500 ppm; seven days; cotyledon and first leaf
Protocol: as §1
Groups of cucumber plants (variety Sagamihanshiro) were planted, two per pot, in a series of Wagner pots (diameter 12 cm) and were used as host plants when the first leaf was fully grown and open. Each test group of three pots was treated with one of the active compounds shown in Table 4 by spraying an aqueous suspension containing 500 ppm of the active compound onto the plants at the rate of 30 ml per 3 pots. After air-drying the plants, a spore suspension of the pathogenic microorganism Colletotrichum lagenarium was sprayed onto the plants and the plants were kept in a wet room for 24 hours at 20°-22° C. and 100% relative humidity. The pots were then placed in a greenhouse at 26° C. and, seven days after the spore suspension had been sprayed on, the percentage diseased area of the cotyledon and the first leaf was calculated.

guppies = experiment: Toxicity to guppies; type: in vivo; conditions: LC50 after 48 hours classified
Protocol: In this example the toxicity of the compounds of the invention towards guppies was estimated and is compared with that of corresponding compounds as disclosed and claimed in our co-pending U.S. Application No. 910,117 filed May 30, 1978. The LC50 was determined after 48 hours and the toxicity to guppies was classified into the rankings (i), (ii) and (iii) according to the following classification scheme: […]

## CCN(CCOc1cc(C(C)C)ccc1C)c1ncnc2ccccc12 [compound 47, 4-{N-ethyl-N-[2-(5-isopropyl-2-methylphenoxy)ethyl]amino}quinazoline]
Sphaerotheca fuliginea
  Diseased area (%): 0%
Cockroach larvae
  Mortality rate (%), 0.5mg test cpd/10 cockroaches/bottle: 85%
  Mortality rate (%), 1mg test cpd/10 cockroaches/bottle: 100%
[1]
  pest or weed control at 500 ppm: 90%
  Extent of ingestion: ±
[2]
  Extent of ingestion: ± to +

## CCN(CCOc1ccc(Cl)cc1C)c1ncnc2ccccc12 [compound 38, 4-{N-[2-(4-chloro-2-methylphenoxy)ethyl]-N-ethylamino}quinazoline]
Sphaerotheca fuliginea
  Diseased area (%): 0%
Cockroach larvae
  Mortality rate (%), 0.5mg test cpd/10 cockroaches/bottle: 90%
  Mortality rate (%), 1mg test cpd/10 cockroaches/bottle: 100%
Phytophthora infestans
  Diseased area (%): 13%
[1]
  pest or weed control at 500 ppm: 100%
  Extent of ingestion: - to ±
[2]
  Extent of ingestion: ±

## C=C(C)CN(CCOc1ccccc1C(C)C)c1ncnc2ccccc12 [compound 52, 4-{N-[2-(2-isopropylphenoxy)ethyl]-N-(2-methylallyl)amino}quinazoline]
Sphaerotheca fuliginea
  Diseased area (%): 0%
Phytophthora infestans
  Diseased area (%): 13%
[3]
  Diseased area (%): 8%
guppies
  Toxicity ranking: i (all fish alive at 10 ppm)

## C=CCN(CCOc1ccc(Cl)cc1C)c1ncnc2ccccc12 [compound 43, 4-{N-allyl-N-[2-(4-chloro-2-methylphenoxy)ethyl]amino}quinazoline]
Sphaerotheca fuliginea
  Diseased area (%): 0%
Cockroach larvae
  Mortality rate (%), 0.5mg test cpd/10 cockroaches/bottle: 90%
  Mortality rate (%), 1mg test cpd/10 cockroaches/bottle: 100%
Phytophthora infestans
  Diseased area (%): 11%
[1]
  pest or weed control at 500 ppm: 70%
  Extent of ingestion: ±
[2]
  Extent of ingestion: +

## CCN(CCOc1ccc(C)cc1C)c1ncnc2ccccc12 [compound 32, 4-{N-[2-(2,4-dimethylphenoxy)ethyl]-N-ethylamino}quinazoline]
Sphaerotheca fuliginea
  Diseased area (%): 0%
Cockroach larvae
  Mortality rate (%), 0.5mg test cpd/10 cockroaches/bottle: 85%
  Mortality rate (%), 1mg test cpd/10 cockroaches/bottle: 100%
Phytophthora infestans
  Diseased area (%): 5%
[3]
  Diseased area (%): 8%

## CCCCN(CCOc1ccc(Cl)cc1C)c1ncnc2ccccc12 [compound 41, 4-{N-butyl-N-[2-(4-chloro-2-methylphenoxy)ethyl]amino}quinazoline]
Cockroach larvae
  Mortality rate (%), 0.5mg test cpd/10 cockroaches/bottle: 85%
  Mortality rate (%), 1mg test cpd/10 cockroaches/bottle: 100%
[1]
  pest or weed control at 500 ppm: 90%
  Extent of ingestion: ±
[2]
  Extent of ingestion: ± to +

## CN(CCOc1ccc(Cl)cc1)c1ncnc2ccccc12 [compound 19, 4-{N-[2-(4-chlorophenoxy)ethyl]-N-methylamino}quinazoline]
Cockroach larvae
  Mortality rate (%), 0.5mg test cpd/10 cockroaches/bottle: 85%
  Mortality rate (%), 1mg test cpd/10 cockroaches/bottle: 100%
[1]
  pest or weed control at 500 ppm: 80%
  Extent of ingestion: ±
[2]
  Extent of ingestion: +

## CCCCCCc1ccc(OCCN(C)c2ncnc3ccccc23)c(C)c1 [compound 57, 4-{N-[2-(4-hexyl-2-methylphenoxy)ethyl]-N-methylamino}quinazoline]
Cockroach larvae
  Mortality rate (%), 0.5mg test cpd/10 cockroaches/bottle: 90%
  Mortality rate (%), 1mg test cpd/10 cockroaches/bottle: 100%
[1]
  pest or weed control at 500 ppm: 100%
  Extent of ingestion: - to ±
[2]
  Extent of ingestion: ±
